Reference: PubChem BioAssay AID1259411 (Chemical Carcinogenesis Research Information System (CCRIS), 2018)
The source made the active and inactive calls. No rule for the calls is given here.

Tested on: rodent carcinogenicity bioassays, tumor incidence
Assay: CCRIS carcinogenicity studies
Outline: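 Archive of carcinogenicity, mutagenicity, tumor promotion and tumor inhibition results drawn from journals, NCI reports and other sources, expert-reviewed; covers 1985-2011 and is no longer updated.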

For `CCCCCCCCCCCC(=O)N(CCO)CCO`, the carcinogen call (Species: MOUSE, Strain/Sex: B6C3F1/FEMALE, Route: DERMAL, Dose: 0, 100, 200 MG/KG BW IN ETHANOL FOR 105 WK (STUDY DURATION: 105 WK), Dose: 0, 100, 200 MG/KG BW IN ETHANOL FOR 105 WK (STUDY DURATION: 105 WK), Tumor Site: Type of Lesion: LIVER: HEPATOCELLULAR ADENOMA, HEPATOCELLULAR ADENOMA OR CARCINOMA, HEPATOCELLULAR CARCINOMA OR HEPATOBLASTOMA, HEPATOCE) was “equivocal”, the carcinogen call (Species: MOUSE, Strain/Sex: B6C3F1/MALE, Route: DERMAL, Dose: 0, 100, 200 MG/KG BW IN ETHANOL FOR 105 WK (STUDY DURATION: 105 WK), Dose: 0, 100, 200 MG/KG BW IN ETHANOL FOR 105 WK (STUDY DURATION: 105 WK)) was “inactive; negative” and the carcinogen call (Species: RAT, Strain/Sex: F344/N/FEMALE, Route: DERMAL, Dose: 0, 50, 100 MG/KG BW IN ETHANOL FOR 105 WK (STUDY DURATION: 105 WK), Dose: 0, 50, 100 MG/KG BW IN ETHANOL FOR 105 WK (STUDY DURATION: 105 WK)) was “inactive; negative”. For the same compound, the carcinogen call (Species: RAT, Strain/Sex: F344/N/MALE, Route: DERMAL, Dose: 0, 50, 100 MG/KG BW IN ETHANOL FOR 104 WK (STUDY DURATION: 104 WK), Dose: 0, 50, 100 MG/KG BW IN ETHANOL FOR 104 WK (STUDY DURATION: 104 WK)) was “inactive; negative”.

With `C/C=C/C=C/C=O` the carcinogen call (Species: MOUSE, Strain/Sex: B6C3F1/FEMALE, Route: GAVAGE, Dose: 0, 30, 60, 120 MG/KG IN CORN OIL 5 D/WK FOR DURATION OF STUDY (STUDY DURATION: 105 WK), Dose: 0, 30, 60, 120 MG/KG IN CORN OIL 5 D/WK FOR DURATION OF STUDY (STUDY DURATION: 105 WK), Tumor Site: Type of Lesion: FORESTOMACH: SQUAMOUS CELL PAPILLOMA, SQUAMOUS CELL CARCINOMA, SQUAMOUS CELL PAPILLOMA OR CARCINOMA) was “active; positive”, the carcinogen call (Species: MOUSE, Strain/Sex: B6C3F1/MALE, Route: GAVAGE, Dose: 0, 30, 60, 120 MG/KG IN CORN OIL 5 D/WK FOR DURATION OF STUDY (STUDY DURATION: 105 WK), Dose: 0, 30, 60, 120 MG/KG IN CORN OIL 5 D/WK FOR DURATION OF STUDY (STUDY DURATION: 105 WK), Tumor Site: Type of Lesion: FORESTOMACH: SQUAMOUS CELL PAPILLOMA, SQUAMOUS CELL CARCINOMA, SQUAMOUS CELL PAPILLOMA OR CARCINOMA) was “active; positive” and the carcinogen call (Species: RAT, Strain/Sex: F344/FEMALE, Route: GAVAGE, Dose: 0, 22.5, 45, 90 MG/KG IN CORN OIL 5 D/WK FOR DURATION OF STUDY (STUDY DURATION: 105 WK), Dose: 0, 22.5, 45, 90 MG/KG IN CORN OIL 5 D/WK FOR DURATION OF STUDY (STUDY DURATION: 105 WK), Tumor Site: Type of Lesion: FORESTOMACH: SQUAMOUS CELL PAPILLOMA) was “active; positive”. For the same compound, the carcinogen call (Species: RAT, Strain/Sex: F344/MALE, Route: GAVAGE, Dose: 0, 22.5, 45, 90 MG/KG IN CORN OIL 5 D/WK FOR DURATION OF STUDY (STUDY DURATION: 105 WK), Dose: 0, 22.5, 45, 90 MG/KG IN CORN OIL 5 D/WK FOR DURATION OF STUDY (STUDY DURATION: 105 WK), Tumor Site: Type of Lesion: FORESTOMACH: SQUAMOUS CELL PAPILLOMA, SQUAMOUS CELL CARCINOMA, SQUAMOUS CELL PAPILLOMA OR CARCINOMA) was “active; positive”.

For `CCCCN(CCCC(=O)O)N=O`, the carcinogen call (Species: MOUSE, Strain/Sex: B6D2F1/FEMALE, Route: ORAL, Dose: 0, 565 MG/L IN DRINKING WATER FOR 13 WK (STUDY DURATION: 28 WK), Tumor Site: Type of Lesion: URINARY BLADDER: TUMOR) was “active; positive” and the carcinogen call (Species: MOUSE, Strain/Sex: B6D2F1/MALE, Route: ORAL, Dose: 0, 565 MG/L IN DRINKING WATER FOR 13 WK (STUDY DURATION: 28 WK), Tumor Site: Type of Lesion: URINARY BLADDER: TUMOR) was “active; positive”.

In the case of `C[C@]12CC[C@@H]3c4ccc(O)cc4CC[C@H]3[C@@H]1CCC2=O`, the carcinogen call (Species: HAMSTER, Route: SUBCUTANEOUS, SUBCUTANEOUS IMPLANT, Tumor Site: Type of Lesion: KIDNEY) is reported as “active; positive”, the carcinogen call (Species: HAMSTER, Strain/Sex: SYRIAN/MALE, Route: SUBCUTANEOUS IMPLANT, Dose: 0, 20 MG PELLET, SINGLE DOSE, Tumor Site: Type of Lesion: KIDNEY) is reported as “active; positive” and the carcinogen call (Species: HAMSTER, Strain/Sex: SYRIAN/MALE, Route: SUBCUTANEOUS IMPLANT, Dose: 0, 20 MG IN PELLETS IMPLANTED EVERY 2.5 MO FOR 9 MO (STUDY DURATION: 9 MO), Tumor Site: Type of Lesion: KIDNEY: TUMOR) is reported as “active; positive”. The carcinogen call (Species: HAMSTER, Strain/Sex: SYRIAN/MALE, Route: SUBCUTANEOUS, Tumor Site: Type of Lesion: KIDNEY, PITUITARY GLAND: ADENOMA) was “active; positive”, the carcinogen call (Species: HUMAN, Tumor Site: Type of Lesion: UTERUS (ENDOMETRIUM)) was “active; positive” and the carcinogen call (Species: MOUSE, Route: ORAL, SUBCUTANEOUS, DERMAL, SUBCUTANEOUS IMPLANT, Tumor Site: Type of Lesion: MAMMARY GLAND) was “active; positive”. The carcinogen call (Species: MOUSE, Strain/Sex: C3H, C3HE(MTV-)/MALE, Route: ORAL, Dose: 125, 2000 UG/L IN DRINKING WATER, Tumor Site: Type of Lesion: MAMMARY GLAND) was “active; positive”, the carcinogen call (Species: MOUSE, Strain/Sex: C3R3(MTV+)/MALE, Route: DIET, Dose: 0, 0.06, 0.6, 6 UG/D, Tumor Site: Type of Lesion: MAMMARY GLAND) was “active; positive” and the carcinogen call (Species: MOUSE, Strain/Sex: GRS/AFIB(MTV+)/FEMALE, Route: ORAL, Dose: 0, 0.5 UG/ML FOR 14-25 WK IN DRINKING WATER, Tumor Site: Type of Lesion: UTERUS) was “active; positive”. The carcinogen call (Species: RAT, Route: SUBCUTANEOUS, SUBCUTANEOUS IMPLANT, Tumor Site: Type of Lesion: ADRENAL GLAND, KIDNEY, MAMMARY GLAND, PITUITARY GLAND, URINARY BLADDER, Tumor Site: Type of Lesion: ADRENAL GLAND, KIDNEY, MAMMARY GLAND, PITUITARY GLAND, URINARY BLADDER) was “active; positive”, the carcinogen call (Species: RAT, Strain/Sex: AUGUST/MALE,FEMALE, Route: SUBCUTANEOUS IMPLANT, Dose: 8-12 MG PELLET, SINGLE DOSE, Tumor Site: Type of Lesion: MAMMARY GLAND) was “active; positive” and the carcinogen call (Species: RAT, Strain/Sex: AXC/MALE,FEMALE, Route: SUBCUTANEOUS IMPLANT, Dose: 8-12 MG PELLET, SINGLE DOSE, Tumor Site: Type of Lesion: MAMMARY GLAND) was “active; positive”. For the same compound, the carcinogen call (Species: RAT, Strain/Sex: COPENHAGEN/MALE,FEMALE, Route: SUBCUTANEOUS IMPLANT, Dose: 8-12 MG PELLET, SINGLE DOSE, Tumor Site: Type of Lesion: URINARY BLADDER) was “active; positive” and the carcinogen call (Species: RAT, Strain/Sex: F344/MALE,FEMALE, Route: SUBCUTANEOUS IMPLANT, Dose: 8-12 MG PELLET, SINGLE DOSE, Tumor Site: Type of Lesion: MAMMARY GLAND) was “active; positive”.

In the case of `CCSC(=O)N(CC)C1CCCCC1`, the carcinogen call (Species: Mouse, Strain/Sex: C57 BL/10JfCD-1/Alpk/Female (50/group), Route: Oral, Dose: 0, 300, 1,000, 3,000 ppm of 98.1% pure cycloate in feed for 18 mo, Dose: 0, 300, 1,000, 3,000 ppm of 98.1% pure cycloate in feed for 18 mo) is reported as “inactive; negative” and the carcinogen call (Species: Mouse, Strain/Sex: C57 BL/10JfCD-1/Alpk/Male (50/group), Route: Oral, Dose: 0, 300, 1,000, 3,000 ppm of 98.1% pure cycloate in feed for 18 mo, Dose: 0, 300, 1,000, 3,000 ppm of 98.1% pure cycloate in feed for 18 mo) is reported as “inactive; negative”.

In the case of `C=CC(=O)OCCCC`, the carcinogen call (Species: MOUSE, Strain/Sex: C3H/MALE, Route: DERMAL, Dose: 0, 0.2 MG IN 25 µL ACETONE 3/WK FOR LIFESPAN (STUDY DURATION: LIFESPAN)) is reported as “inactive; negative”, the carcinogen call (Species: RAT, Strain/Sex: SPRAGUE-DAWLEY/FEMALE, Route: INHALATION, Dose: 0, 15, 45, 135 PPM 6 HR/D 5 D/WK FOR 24 MO (STUDY DURATION: 130 WK), Dose: 0, 15, 45, 135 PPM 6 HR/D 5 D/WK FOR 24 MO (STUDY DURATION: 130 WK)) is reported as “inactive; negative” and the carcinogen call (Species: RAT, Strain/Sex: SPRAGUE-DAWLEY/MALE, Route: INHALATION, Dose: 0, 15, 45, 135 PPM 6 HR/D 5 D/WK FOR 24 MO (STUDY DURATION: 130 WK), Dose: 0, 15, 45, 135 PPM 6 HR/D 5 D/WK FOR 24 MO (STUDY DURATION: 130 WK)) is reported as “inactive; negative”.
